Results as given in US10798955B2, “Compositions of particulate coformulation” (Nektar Therapeutics, priority 2000, dated 2020).

Assay: Storage stability at room temperature and 100% relative humidity
Type: physicochemical
Details: 200 mg stored for a month at room temperature and 100% relative humidity
Experimental: For the assessment of stability, 200 mg of the Example A6 product (60% w/w QS in EC) was stored for a month at room temperature and 100% relative humidity, alongside a sample of the as-received pure QS.

Compound: C=C[C@H]1C[N@@]2CC[C@H]1C[C@H]2[C@H](O)c1ccnc2ccc(OC)cc12 [quinine sulphate]
- powder physical appearance and flow properties after storage: signs of partial caking and a lower degree of powder flowability
